Results published in patent US8426588B2, “Phenylalanine derivatives” (Ajinomoto Co, Inc., priority 2000, dated 2013).

Legend:
integrin α4β1 = biological target: T1, integrin α4β1 (Homo sapiens, UniProt P05556+P13612); experiment: VCAM antagonist activity (VCAM-1/α4β1 binding assay), Jurkat cells binding to VCAM-1; assay type: cell-based; conditions: Jurkat human T cells binding to recombinant human VCAM-1; read-out: VCAM antagonistic activity (IC50) α4β1
T1 construct: cell strain Jurkat (ATCC TIB-152) of human T cells, known to express integrin α4β1; endogenous in cells; host or cells: Jurkat (ATCC TIB-152)
T1 sequence (P05556 21-798, one chain of several): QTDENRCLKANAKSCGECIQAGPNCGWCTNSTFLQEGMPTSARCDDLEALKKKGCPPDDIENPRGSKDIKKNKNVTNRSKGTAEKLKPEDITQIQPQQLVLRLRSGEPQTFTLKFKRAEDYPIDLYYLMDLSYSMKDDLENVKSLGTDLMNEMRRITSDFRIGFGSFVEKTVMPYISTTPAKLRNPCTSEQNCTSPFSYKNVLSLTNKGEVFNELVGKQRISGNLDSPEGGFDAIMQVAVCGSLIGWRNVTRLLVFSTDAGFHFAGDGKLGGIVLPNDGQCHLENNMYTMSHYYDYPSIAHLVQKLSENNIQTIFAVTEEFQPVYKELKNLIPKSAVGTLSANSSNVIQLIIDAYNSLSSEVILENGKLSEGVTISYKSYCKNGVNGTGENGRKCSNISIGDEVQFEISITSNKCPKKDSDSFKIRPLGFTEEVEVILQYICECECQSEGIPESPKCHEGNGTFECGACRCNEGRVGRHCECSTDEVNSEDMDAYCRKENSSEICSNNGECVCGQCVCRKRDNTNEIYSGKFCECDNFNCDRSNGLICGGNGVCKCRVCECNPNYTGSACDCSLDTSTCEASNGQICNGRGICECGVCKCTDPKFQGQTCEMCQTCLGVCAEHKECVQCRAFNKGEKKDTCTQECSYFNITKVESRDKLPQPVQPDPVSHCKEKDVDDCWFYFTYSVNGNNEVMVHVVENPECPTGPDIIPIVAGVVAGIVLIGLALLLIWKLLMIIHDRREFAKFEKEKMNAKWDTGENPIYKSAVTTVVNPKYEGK
Procedure: VCAM Antagonist Activity (VCAM-1/α4β1 Binding Assay)
The capacity of a test substance antagonistic to the binding of cell strain Jurkat (ATCC TIB-152) of human T cells, known to express integrin α4β1, to VCAM-1 was determined.
(§1) 100 μl/well of a solution (500 ng/ml) of recombinant human VCAM-1 (R & D systems) solution diluted with buffer A (0.1 M NaHCO3, pH 9.6) was added to a micro titer plate having 96 wells (Nunc Maxisorp). After the incubation at 4° C. overnight, unbound VCAM-1 was removed by washing once with PBS. After completion of the washing, a buffer (buffer B) obtained by diluting Block Ace (Dainippon Pharmaceutical Co., Ltd.) with PBS to ¼ concentration was added in an amount of 150 μl/well. After the incubation at room temperature for 1 hour, buffer B was removed and the plate was washed with PBS once.
Jurkat cells were washed with Dulbecco modified Eagle medium (SIGMA, hereinafter referred to as “DMEM”) twice and then incubated in DMEM containing 10 μg/ml of Calcein-AM (Wako Pure Chemical Industries, Ltd.) at 37° C. in dark place for 30 minutes to label with fluorescence. The cells were again suspended in a binding buffer (20 mM HEPES, DMEM containing 0.1% BSA).
(§2) 50 μl of a test substance of various concentrations obtained by the dilution with the binding buffer was added to the plate. Immediately thereafter, 50 μl (final volume: 100 μl/well) of the fluorescent Jurkat cells (4×10^6 cells/ml) were added thereto, and they were incubated in dark place at room temperature for 30 minutes. After the shaking on a plate shaker (IKA MTS-4) at 800 rpm for 30 seconds, the solution was immediately removed to remove the unbound cells. The fluorescence quantity of the bound cells remaining in the wells was determined with a fluorescent plate reader (Wallac 1920 ARVO multi-label counter) (filter excitation wave length: 485 nm, emission wave length: 535 nm). The fluorescent strength thus obtained is proportional to the number of Jurkat cells bound to VCAM-1 and remaining on the plate. The binding rate of each test material in various concentrations was determined while the fluorescent strength of the test material-free well was determined to be 100%.

integrin α4β7 = biological target: T2, integrin α4β7 (Homo sapiens, UniProt P13612+P26010); experiment: VCAM antagonistic activity (VCAM-1/α4β7 binding assay), RPMI-8866 cells binding to VCAM-1; assay type: cell-based; conditions: RPMI-8866 human B lymphoma cells binding to recombinant human VCAM-1; binding buffer with 4 mM MnCl2
T2 construct: lymphoma cell strain RPMI-8866 of human B cells, known to express integrin α4β7; endogenous in cells; host or cells: RPMI-8866
T2 sequence (P13612 34-1032): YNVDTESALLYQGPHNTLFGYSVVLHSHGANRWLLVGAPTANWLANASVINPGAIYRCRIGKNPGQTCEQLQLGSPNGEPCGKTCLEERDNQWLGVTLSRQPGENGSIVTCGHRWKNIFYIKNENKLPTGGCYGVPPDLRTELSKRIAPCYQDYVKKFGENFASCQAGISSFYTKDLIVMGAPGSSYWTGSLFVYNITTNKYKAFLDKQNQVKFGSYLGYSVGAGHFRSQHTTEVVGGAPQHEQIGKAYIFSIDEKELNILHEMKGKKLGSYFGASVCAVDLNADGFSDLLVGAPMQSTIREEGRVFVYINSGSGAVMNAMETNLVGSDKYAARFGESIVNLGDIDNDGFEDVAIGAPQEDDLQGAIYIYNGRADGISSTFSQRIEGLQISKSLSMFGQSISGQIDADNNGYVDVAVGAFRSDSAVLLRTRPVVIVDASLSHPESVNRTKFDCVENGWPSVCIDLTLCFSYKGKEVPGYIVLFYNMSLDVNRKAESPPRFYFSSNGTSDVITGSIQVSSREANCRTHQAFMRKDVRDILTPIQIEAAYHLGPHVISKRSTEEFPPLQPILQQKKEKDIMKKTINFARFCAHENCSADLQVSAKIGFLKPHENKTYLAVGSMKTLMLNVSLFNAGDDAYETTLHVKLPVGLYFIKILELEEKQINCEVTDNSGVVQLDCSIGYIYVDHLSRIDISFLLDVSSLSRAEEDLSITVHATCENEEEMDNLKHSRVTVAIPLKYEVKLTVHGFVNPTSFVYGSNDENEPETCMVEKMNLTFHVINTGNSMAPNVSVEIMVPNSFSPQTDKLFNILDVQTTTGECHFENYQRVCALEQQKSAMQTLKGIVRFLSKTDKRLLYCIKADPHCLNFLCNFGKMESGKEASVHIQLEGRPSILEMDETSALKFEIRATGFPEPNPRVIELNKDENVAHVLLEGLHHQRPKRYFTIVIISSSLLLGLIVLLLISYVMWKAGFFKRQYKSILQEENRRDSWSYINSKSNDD
T2 sequence (P26010 20-798): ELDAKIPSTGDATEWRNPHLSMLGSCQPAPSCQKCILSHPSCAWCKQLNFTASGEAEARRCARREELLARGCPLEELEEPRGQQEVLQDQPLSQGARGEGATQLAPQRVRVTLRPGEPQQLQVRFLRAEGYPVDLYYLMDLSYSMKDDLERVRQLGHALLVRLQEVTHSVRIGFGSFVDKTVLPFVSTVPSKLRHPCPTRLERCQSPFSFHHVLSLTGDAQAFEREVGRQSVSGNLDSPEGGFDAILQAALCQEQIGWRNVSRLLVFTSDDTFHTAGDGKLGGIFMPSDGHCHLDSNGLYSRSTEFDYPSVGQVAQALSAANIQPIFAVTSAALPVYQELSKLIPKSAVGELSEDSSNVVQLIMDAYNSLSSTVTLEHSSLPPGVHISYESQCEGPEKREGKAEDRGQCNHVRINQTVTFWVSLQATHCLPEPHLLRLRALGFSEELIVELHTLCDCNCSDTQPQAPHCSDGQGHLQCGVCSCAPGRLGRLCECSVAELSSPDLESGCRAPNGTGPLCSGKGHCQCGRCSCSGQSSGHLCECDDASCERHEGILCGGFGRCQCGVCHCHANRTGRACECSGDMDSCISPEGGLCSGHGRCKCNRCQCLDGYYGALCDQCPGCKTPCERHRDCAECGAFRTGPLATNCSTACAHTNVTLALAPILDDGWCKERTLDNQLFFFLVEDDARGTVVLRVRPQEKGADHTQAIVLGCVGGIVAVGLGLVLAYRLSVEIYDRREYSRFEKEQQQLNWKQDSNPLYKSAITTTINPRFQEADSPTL
Procedure: VCAM Antagonistic Activity (VCAM-1/α4β7 Binding Assay)
The capacity of a test substance antagonistic to the binding of lymphoma cell strain RPMI-8866 of human B cells, known to express integrin α4β7, to VCAM-1 was determined.
as §1
RPMI-8866 cells were washed with DMEM twice and incubated in Dulbecco modified Eagle medium containing 10 μg/ml of Calcein-AM (Wako Pure Chemical Industries, Ltd.) (SIGMA, hereinafter referred to as “DMEM”) in dark place at 37° C. for 30 minutes to label with fluorescence. The cells were again suspended in a binding buffer (20 mM HEPES, DMEM containing 0.1% BSA) containing 4 mM of MnCl2.
as §2, with “RPMI-8866” for “Jurkat”, “1420” for “1920”

| Compound | IC50 (integrin α4β1) [nM] | IC50 (integrin α4β7) [nM] |
| --- | --- | --- |
| O=C(N[C@@H](Cc1ccc(-n2c(=O)[nH]c3ccccc3c2=O)cc1)C(=O)O)c1c(Cl)cccc1Cl [Example 2] | 240 | 9.2 |
| CCn1c(=O)n(-c2ccc(C[C@H](NC(=O)c3c(Cl)cccc3Cl)C(=O)O)cc2)c(=O)c2ccccc21 [Example 3] | 66 | 3.5 |
| O=C(O)Cn1c(=O)n(-c2ccc(C[C@H](NC(=O)c3c(Cl)cccc3Cl)C(=O)O)cc2)c(=O)c2ccccc21 [Example 7] | 110 | 22 |
| COc1cccc(OC)c1C(=O)N[C@@H](Cc1ccc(-n2c(=O)c3ccccc3n(C)c2=O)cc1)C(=O)O [Example 9] | 440 | 94 |
| Cn1c(=O)n(-c2ccc(C[C@H](NC(=O)C3CCCCC3)C(=O)O)cc2)c(=O)c2ccccc21 [Example 12] | 490 | 19 |
| Cn1c(=O)n(-c2ccc(C[C@H](NC(=O)[C@H]3CC[C@H](C(=O)O)CC3)C(=O)O)cc2)c(=O)c2ccccc21 [Example 13] | 220 | 4.5 |
| CCSc1nc2ccccc2c(=O)n1-c1ccc(C[C@H](NC(=O)c2c(Cl)cccc2Cl)C(=O)O)cc1 [Example 17] | 2100 | 43 |
| CSc1nc2ccccc2c(=O)n1-c1ccc(C[C@H](NC(=O)c2c(Cl)cccc2Cl)C(=O)O)cc1 [Example 18] | 1900 | 23 |
| COc1ccc(C(=O)CSc2nc3ccccc3c(=O)n2-c2ccc(C[C@H](NC(=O)c3c(Cl)cccc3Cl)C(=O)O)cc2)cc1 [Example 23] | 7240 | 18 |
| Cc1nc2ccccc2c(=O)n1-c1ccc(C[C@H](NC(=O)c2c(Cl)cccc2Cl)C(=O)O)cc1 [Example 31] | 630 | 50 |
| CCc1nc2ccccc2c(=O)n1-c1ccc(C[C@H](NC(=O)c2c(Cl)cccc2Cl)C(=O)O)cc1 [Example 32] | 2420 | 64 |
| CCCCc1nc2ccccc2c(=O)n1-c1ccc(C[C@H](NC(=O)c2c(Cl)cccc2Cl)C(=O)O)cc1 [Example 34] | 2210 | 42 |
| O=C(N[C@@H](Cc1ccc(-n2c(-c3ccccc3)nc3ccccc3c2=O)cc1)C(=O)O)c1c(Cl)cccc1Cl [Example 35] | 1700 | 68 |
| COc1nc2ccccc2c(=O)n1-c1ccc(C[C@H](NC(=O)c2c(Cl)cccc2Cl)C(=O)O)cc1 [Example 36] | 490 | 6.6 |
| CCOc1nc2ccccc2c(=O)n1-c1ccc(C[C@H](NC(=O)c2c(Cl)cccc2Cl)C(=O)O)cc1 [Example 37] | 200 | 19 |
| CCCCc1nc2ccccc2c(=O)n1-c1ccc(C[C@H](NC(=O)c2c(C)cccc2C)C(=O)O)cc1 [Example 41] | 3410 | 86 |
| Cc1cccc(C)c1C(=O)N[C@@H](Cc1ccc(-n2c(-c3ccccc3)nc3ccccc3c2=O)cc1)C(=O)O [Example 42] | 6730 | 92 |
| Cc1cccc(C)c1C(=O)N[C@@H](Cc1ccc(-n2c(CCl)nc3ccccc3c2=O)cc1)C(=O)O [Example 44] | 4230 | 79 |
| O=C(N[C@@H](Cc1ccc(-n2c(=O)[nH]c3c(Cl)cccc3c2=O)cc1)C(=O)O)c1c(Cl)cccc1Cl [Example 45] | 340 | 10.2 |
| COc1cccc2c(=O)n(-c3ccc(C[C@H](NC(=O)c4c(Cl)cccc4Cl)C(=O)O)cc3)c(=O)[nH]c12 [Example 46] | 195 | 6.8 |
| O=C(N[C@@H](Cc1ccc(-n2c(=O)[nH]c3ccc(Cl)cc3c2=O)cc1)C(=O)O)c1c(Cl)cccc1Cl [Example 47] | 1980 | 76 |
| COc1ccc2[nH]c(=O)n(-c3ccc(C[C@H](NC(=O)c4c(Cl)cccc4Cl)C(=O)O)cc3)c(=O)c2c1 [Example 48] | 1800 | 28 |
| O=C(N[C@@H](Cc1ccc(-n2c(=O)[nH]c3cc(C(F)(F)F)ccc3c2=O)cc1)C(=O)O)c1c(Cl)cccc1Cl [Example 49] | 1180 | 62.1 |
| Cc1cccc2c(=O)n(-c3ccc(C[C@H](NC(=O)c4c(Cl)cccc4Cl)C(=O)O)cc3)c(=O)[nH]c12 [Example 50] | 1770 | 7.9 |
| COc1cc2[nH]c(=O)n(-c3ccc(C[C@H](NC(=O)c4c(Cl)cccc4Cl)C(=O)O)cc3)c(=O)c2cc1OC [Example 51] | 1180 | 30 |
| O=C(N[C@@H](Cc1ccc(-n2c(=O)[nH]c3ccc(F)cc3c2=O)cc1)C(=O)O)c1c(Cl)cccc1Cl [Example 52] | 1310 | 55.3 |
